Reference: US10428024B2, “Piperidinyl derivatives” (MERCK PATENT GMBH, priority 2016, dated 2019)

How the values were obtained:
[1] = target: PDHK2 (Homo sapiens (Human), UniProt Q15119); assay: Biochemical activity testing of PDHK2: PDC inactivation assay; conditions: human rec PDHK2, 5 μM ATP, read-out: IC50 PDHK2 (enzyme assay)
Source text: Biochemical Activity Testing of PDHK2: PDC Inactivation Assay
The biochemical activity assay for PDHK2 is based on the inactivation of PDC through phosphorylation by PDHK2. The assay is run in two steps: the enzymatic PDHK2 reaction in which isolated PDC is phosphorylated by PDHK2 with ATP as co-substrate and the PDC activity assay in which pyruvate and NAD are converted to acetyl-CoA and NADH. The PDC activity correlates to the increase in NADH and thereby is detectable directly via the increasing fluorescence signal (Exc 340 nm, Em 450 nm). Inhibition of PDHK2 results in a lower phosphorylation status and thereby a less decrease in activity of PDC and a stronger increase in NADH fluorescence signal.
The PDC inactivation assay is performed in Greiner 384-well microtiter plates and is used for high throughput screen. 4 μl of PDHK2 (human, rec, Carna Bioscience, 10 ng/μl-137 nM final concentration) and PDC (isolated from porcine heart, Sigma-Aldrich, 20 mU/ml final concentration) are incubated in the absence or presence of the test compound (10 dilution concentrations) for 30 min at room temperature in kinase buffer (15 mM potassium phosphate buffer, pH 7.0, 60 mM KCl, 1.5 mM DTT, 2.5 mM MgCl2, 0.0125% (w/v) BSA, 0.125% Pluronic F-68). The kinase reaction is started by the addition of 4 μl ATP substrate solution (fc 5 μM in kinase buffer). After 30 min incubation at 37° C. 40 μl of PDC reaction solution (100 mM Tris/HCl, pH 7.8, 0.5 mM EDTA, 1 mM MgCl2, 50 mM NaF, 0.25 mM Coenzyme A, 5 mM pyruvate, 1 mM NAD, 5 mM DTT, 1 mM thiamine pyrophosphate) is added. The first fluorescence measurement is performed on a Perkin Elmer Envision (Exc 340 nm, Em 450 nm). The reaction is incubated for 45 min at room temperature. Afterwards a second fluorescence measurement is performed and the PDC activity is calculated by the difference between both measurements. As full value for the PDHK2 assay the inhibitor-free PDHK2 reaction is used. The pharmacological zero value used is DCA (Sigma-Aldrich) in a final concentration of 3 mM. The inhibitory values (IC50) were determined using either the program Symyx Assay Explorer® or Condosseo® from GeneData.

[2] = target: human PDHK2 (12-407) (Homo sapiens (Human), UniProt Q15119); assay: Isothermal titration calorimetry (ITC); conditions: 30° C., pH 7.5; read-out: Binding (ITC) KD
Method: Isothermal Titration Calorimetry
ITC measurements were performed with a VP-ITC micro calorimeter (Microcal, LLC/GE Healthcare Bio-Sciences AB, Uppsala, Sweden). In general titrations were performed by titrating the protein (50 μM) to the test compound (5 μM) in 12 μl injections. All binding experiments were carried out at 30° C. In general the test compounds were diluted form DMSO stock solutions into the measurement buffer with a maximum final concentration of 1% DMSO. The measurement buffer was 20 mM HEPES, 135 mM KCl, 1 mM TCEP, 2 mM MgCl2, 15 mM NaH2PO4, pH 7.5. The human PDHK2 (12-407) was produced in E. coli as his-tagged protein and purified by affinity chromatography. The tag was removed by side specific proteolysis. Before titration the protein buffer was changed to the measurement buffer containing the same DMSO concentration as the test compound dilution. ITC data analysis was performed using Origin 7 calorimetry software from the same supplier. For most measurements a binding model of one binding site was assumed. According to the applied mathematical model it is possible to calculate the binding constant (KA), the observed binding enthalpy (ΔH^obs) as well as the stoichiometry (N) of the formed complex. Preceding analysis the raw data was corrected for the heats of dilution by extrapolating from the saturation value from the end of titration. In order to allow for direct comparison between the respective experimental series and protein preparations the protein concentration was corrected by referencing titrations to a well behaved standard inhibitor. The apparent stoichiometry values defined the fraction of binding competent protein and compensated for relative errors in protein concentration measurements. This corrected protein concentration was used to set up ITC experiment series with test compounds. Any deviations from ideal 1:1 stoichiometry observed here were attributed to errors in compound concentration. This nominal compound concentration was corrected as well to achieve 1:1 stoichiometry in the fit.

[3] = system: PDH-E1alpha (pSer300) in HEK293T cells; assay: Cellular immunofluorescence assay (Anti-PDH-E1alpha (pSer300)) in HEK293T cells; type: cell-based; conditions: Homo sapiens, HEK-293T, 5 hours incubation, read-out: IC50 (cell data)
Method: Cellular Assay for Determination of Compound Activities
Compound activities were determined in a cellular immunofluorescence assay.
Human HEK293T cells were seeded into black 384-well plates with clear bottom and grown overnight.
Next day, test compounds were added to the wells and the plates incubated for 5 hours. Following this, cells were fixed with formaldehyde, permeabilised and blocked. The primary antibody, Anti-PDH-E1alpha (pSer300), AP1064 (Merck Millipore) was added and incubated overnight in the plate wells. Next, cells were washed and the secondary antibody, Alexa Fluor 488, goat anti-rabbit ab (A-11008, Invitrogen) was added together with Hoechst 33258 (H3569, Invitrogen) and incubated for 1 hour in the plate wells. Finally, cells were washed and the plates were measured on the laser scanning cytometer acumen hci (TTpLabtech).
The raw data were normalized against a pharmacological inhibitor control and dose response curves were generated by plotting the percent effect values using the software package Genedata screener (Genedata).

| IC50 [1] [nM] | Kd [2] [nM] | SMILES | IC50 [3] [nM] |
| --- | --- | --- | --- |
| 410 | 69 | CCN(C(=O)c1ccc(C)cc1F)C1CCN(C(=O)[C@@](C)(O)C(F)(F)F)CC1 [Compound A64, N-Ethyl-2-fluoro-4-methyl-N-[1-((R)-3,3,3-trifluoro-2-hydroxy-2-methyl-propionyl)-piperidin-4-yl]-benzamide] | 310 |
| 110 | 26 | C[C@@H]1CN(C(=O)[C@@](C)(O)C(F)(F)F)CC[C@@H]1C(=O)N(C)c1ccc(Cl)cc1 [Compound A10, (3S,4S)—N-(4-chlorophenyl)-N,3-dimethyl-1-[(2R)-3,3,3-trifluoro-2-hydroxy-2-methylpropanoyl]piperidine-4-carboxamide] | 170 |
| 120 | 14 | Cc1ccc(N(C)C(=O)[C@H]2CCN(C(=O)[C@@](C)(O)C(F)(F)F)C[C@H]2C)c(F)c1 [Compound A13, (3S,4S)—N-(2-fluoro-4-methylphenyl)-N,3-dimethyl-1-[(2R)-3,3,3-trifluoro-2-hydroxy-2-methylpropanoyl]piperidine-4-carboxamide] | 70 |
| 250 | 38 | C[C@@H]1CN(C(=O)[C@@](C)(O)C(F)(F)F)CC[C@@H]1N(C)C(=O)c1ccc(F)cc1 [Compound A29, 4-Fluoro-N-methyl-N-[(3R,4S)-3-methyl-1-[(2R)-3,3,3-trifluoro-2-hydroxy-2-methylpropanoyl]piperidin-4-yl]benzamide] | 290 |
| 1100 | 130 | Cc1ccc(N(C)C(=O)C2CCN(C(=O)[C@@](C)(O)C(F)(F)F)CC2)cc1 [Compound A1, 1-((R)-3,3,3-Trifluoro-2-hydroxy-2-methyl-propionyl)-piperidine-4-carboxylic Acid Methyl-p-Tolyl-Amide] | 5300 |
| 130 | 16 | Cc1ccc(C(=O)N(C)[C@H]2CCN(C(=O)[C@@](C)(O)C(F)(F)F)C[C@H]2C)cc1 [Compound A24, N,4-Dimethyl-N-[(3R,4S)-3-methyl-1-[(2R)-3,3,3-trifluoro-2-hydroxy-2-methylpropanoyl]piperidin-4-yl]benzamide] | 290 |
| 230 | 130 | C[C@@H]1CN(C(=O)[C@@](C)(O)C(F)(F)F)CC[C@@H]1N(C)C(=O)c1cnn(C)c1 [Compound A56, N,1-Dimethyl-N-[(3R,4S)-3-methyl-1-[(2R)-3,3,3-trifluoro-2-hydroxy-2-methylpropanoyl]piperidin-4-yl]-1H-pyrazole-4-carboxamide] | 910 |
| 290 | 44 | C[C@@H]1CN(C(=O)[C@@](C)(O)C(F)(F)F)CC[C@@H]1N(C)C(=O)c1ccc(C(F)(F)F)cc1 [Compound A62, N-Methyl-N-[(3R,4S)-3-methyl-1-[(2R)-3,3,3-trifluoro-2-hydroxy-2-methylpropanoyl]piperidin-4-yl]-4-(trifluoromethyl)benzamide] | 290 |
| 410 | 51 | C[C@@H]1CN(C(=O)[C@@](C)(O)C(F)(F)F)CC[C@@H]1N(C)C(=O)c1ccc(F)cn1 [Compound A53, 5-Fluoro-N-methyl-N-[(3R,4S)-3-methyl-1-[(2R)-3,3,3-trifluoro-2-hydroxy-2-methylpropanoyl]piperidin-4-yl]pyridine-2-carboxamide] | 340 |
| 98 | 20 | C[C@@H]1CN(C(=O)[C@@](C)(O)C(F)(F)F)CC[C@@H]1N(C)C(=O)c1ccc(Cl)cc1F [Compound A59, 4-Chloro-2-fluoro-N-methyl-N-[(3R,4S)-3-methyl-1-[(2R)-3,3,3-trifluoro-2-hydroxy-2-methylpropanoyl]piperidin-4-yl]benzamide] | 53 |
| 390 | 154 | CN(C(=O)c1ccc(Cl)cc1)C1CCN(C(=O)[C@@](C)(O)C(F)(F)F)CC1 [Compound A16, 4-Chloro-N-methyl-N-{1-[(2R)-3,3,3-trifluoro-2-hydroxy-2-methylpropanoyl]piperidin-4-yl}benzamide] | 1500 |
| 710 | 46 | C[C@@H]1CN(C(=O)[C@@](C)(O)C(F)(F)F)CC[C@@H]1N(C)C(=O)c1ccccc1 [Compound A32, N-Methyl-N-[(3R,4S)-3-methyl-1-[(2R)-3,3,3-trifluoro-2-hydroxy-2-methylpropanoyl]piperidin-4-yl]benzamide] | 140 |
| 550 | 53 | CN(C(=O)c1ccc(C(F)(F)F)cc1Cl)C1CCN(C(=O)[C@@](C)(O)C(F)(F)F)CC1 [Compound A19, 2-Chloro-N-methyl-N-{1-[(2R)-3,3,3-trifluoro-2-hydroxy-2-methylpropanoyl]piperidin-4-yl}-4-(trifluoromethyl)benzamide] | 520 |
| 260 | 57 | C[C@@H]1CN(C(=O)[C@@](C)(O)C(F)(F)F)CC[C@@H]1N(C)C(=O)c1ccc(Cl)cc1 [Compound A21, 4-Chloro-N-methyl-N-[(3R,4S)-3-methyl-1-[(2R)-3,3,3-trifluoro-2-hydroxy-2-methylpropanoyl]piperidin-4-yl]benzamide] | 160 |
| 300 | 13 | Cc1ccc(C(=O)N(C)[C@H]2CCN(C(=O)[C@@](C)(O)C(F)(F)F)C[C@H]2C)c(F)c1 [Compound A27, 2-Fluoro-N,4-dimethyl-N-[(3R,4S)-3-methyl-1-[(2R)-3,3,3-trifluoro-2-hydroxy-2-methylpropanoyl]piperidin-4-yl]benzamide] | 9.3 |
| 300 | 53 | C[C@@H]1CN(C(=O)[C@@](C)(O)C(F)(F)F)CC[C@@H]1N(C)C(=O)c1ccc(C#N)cc1 [Compound A44, 4-Cyano-N-methyl-N-[(3R,4S)-3-methyl-1-[(2R)-3,3,3-trifluoro-2-hydroxy-2-methylpropanoyl]piperidin-4-yl]benzamide] | 350 |
| 1300 | 140 | Cc1ccc(C(=O)N(C(C)C)C2CCN(C(=O)[C@@](C)(O)C(F)(F)F)CC2)c(F)c1 [Compound A65, 2-Fluoro-N-isopropyl-4-methyl-N-[1-((R)-3,3,3-trifluoro-2-hydroxy-2-methyl-propionyl)-piperidin-4-yl]-benzamide] | 590 |
| 200 |  | Cc1ccc(N(C)C(=O)C2CCN(C(=O)[C@@](C)(O)C(F)(F)F)CC2C)c(F)c1 (stereo partly drawn) [Compound A12, N-(2-fluoro-4-methylphenyl)-N,3-dimethyl-1-[(2R)-3,3,3-trifluoro-2-hydroxy-2-methylpropanoyl]piperidine-4-carboxamide] | 190 |
